Data from PubChem BioAssay AID256 (DTP/NCI, 2004).
Where “and” joins values, the source holds several entries; their conditions need not be identical. Equal entries are not always repeated. Toxic doses and inconclusive results are not listed. The calls were made as follows: active = survival T/C of 150% or more; inactive = T/C below 125% in these data.

Tested on: CD2F1 mice, L1210 leukemia ip, survival T/C
Assay: NCI In Vivo Anticancer Drug Screen. Data for tumor model L1210 Leukemia (intraperitoneal) in CD2F1 (CDF1) mice
Details: higher = longer survival
Method in brief: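 Vehicle-treated tumor-bearing mice served as controls (C) for compound-treated mice (T). Reported figure is T divided by C.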

[1] = endpoint: mean survival time, dose: 100.0 mg/kg/injection, schedule: Q04DX002 (ip), vehicle: saline with Tween-80
[2] = endpoint: mean survival time, dose: 200.0 mg/kg/injection, schedule: Q04DX002 (ip), vehicle: saline with Tween-80
[3] = endpoint: mean survival time, dose: 400.0 mg/kg/injection, schedule: Q04DX002 (ip), vehicle: saline with Tween-80
[4] = endpoint: mean survival time, dose: 100.0 mg/kg/injection, schedule: Q04DX003 (ip), vehicle: saline with Tween-80
[5] = endpoint: mean survival time, dose: 200.0 mg/kg/injection, schedule: Q04DX003 (ip), vehicle: saline with Tween-80
[6] = endpoint: mean survival time, dose: 400.0 mg/kg/injection, schedule: Q04DX003 (ip), vehicle: saline with Tween-80
[7] = endpoint: mean survival time, dose: 25.0 mg/kg/injection, schedule: Q01DX009 (ip), vehicle: saline
[8] = endpoint: mean survival time, dose: 50.0 mg/kg/injection, schedule: Q01DX009 (ip), vehicle: saline
[9] = endpoint: mean survival time, dose: 12.5 mg/kg/injection, schedule: Q01DX009 (ip), vehicle: saline with Tween-80
[10] = endpoint: mean survival time, dose: 25.0 mg/kg/injection, schedule: Q01DX009 (ip), vehicle: saline with Tween-80
[11] = endpoint: mean survival time, dose: 50.0 mg/kg/injection, schedule: Q01DX009 (ip), vehicle: saline with Tween-80
[12] = endpoint: mean survival time, dose: 100.0 mg/kg/injection, schedule: Q01DX009 (ip), vehicle: saline with Tween-80

Measured: T/C

N#CCCC#N (tested in a mixture with another compound)
inactive: endpoint: mean survival time, dose: 50.0 mg/kg/injection, schedule: Q04DX002 (ip), vehicle: saline with Tween-80 96 % of control and 100 % of control | [1] 96 % of control and 107 % of control | [2] 100 % of control and 96 % of control | [3] 92 % of control and 100 % of control

CC(C)NC1=C(NC(=O)NC(=O)c2ccccc2)C(=O)c2ccccc2C1=O
inactive: endpoint: mean survival time, dose: 100.0 mg/kg/injection, schedule: Q01DX001 (ip), vehicle: other 100 % of control | endpoint: mean survival time, dose: 200.0 mg/kg/injection, schedule: Q01DX001 (ip), vehicle: other 103 % of control | endpoint: mean survival time, dose: 400.0 mg/kg/injection, schedule: Q01DX001 (ip), vehicle: other 106 % of control

Cc1ccc(S(=O)(=O)N/N=C/Cc2c(C(C)C)cc(C(C)C)cc2C(C)C)cc1
inactive: endpoint: median survival time, dose: 50.0 mg/kg/injection, schedule: Q04DX002 (ip), vehicle: saline with Tween-80 100 % of control | endpoint: median survival time, dose: 100.0 mg/kg/injection, schedule: Q04DX002 (ip), vehicle: saline with Tween-80 100 % of control | endpoint: median survival time, dose: 200.0 mg/kg/injection, schedule: Q04DX002 (ip), vehicle: saline with Tween-80 110 % of control | endpoint: median survival time, dose: 400.0 mg/kg/injection, schedule: Q04DX002 (ip), vehicle: saline with Tween-80 100 % of control

CCCCOC(=O)C(C)(C)O
inactive: [4] 96 % of control | [5] 102 % of control | [6] 98 % of control

COC(=O)c1[nH]cnc1/N=N\N(CCF)CCF
inactive: endpoint: mean survival time, dose: 2.1 mg/kg/injection, schedule: Q01DX009 (ip), vehicle: carboxymethylcellulose (CMC) 109 % of control | endpoint: mean survival time, dose: 4.2 mg/kg/injection, schedule: Q01DX009 (ip), vehicle: carboxymethylcellulose (CMC) 108 % of control

O=S(=O)(O)SCCN1CCCC1
inactive: endpoint: mean survival time, dose: 12.5 mg/kg/injection, schedule: Q01DX009 (ip), vehicle: saline 107 % of control | endpoint: mean survival time, dose: 12.5 mg/kg/injection, schedule: Q04DX003 (ip), vehicle: saline sonified 101 % of control | [7] 104 % of control | endpoint: mean survival time, dose: 25.0 mg/kg/injection, schedule: Q04DX003 (ip), vehicle: saline sonified 98 % of control | [8] 102 % of control | endpoint: mean survival time, dose: 50.0 mg/kg/injection, schedule: Q04DX003 (ip), vehicle: saline sonified 96 % of control

[Se]=[P+](OC1CCCCC1)OC1CCCCC1
inactive: endpoint: mean survival time, dose: 100.0 mg/kg/injection, schedule: Q01DX001 (ip), vehicle: saline 90 % of control | endpoint: mean survival time, dose: 200.0 mg/kg/injection, schedule: Q01DX001 (ip), vehicle: saline 92 % of control | endpoint: mean survival time, dose: 400.0 mg/kg/injection, schedule: Q01DX001 (ip), vehicle: saline 92 % of control

CN1CCN(Cc2nc3cccc4c3c([n+]2[O-])-c2ccccc2-4)CC1
inactive: [9] 91 % of control and 97 % of control and 102 % of control | [10] 96 % of control and 101 % of control and 102 % of control | [11] 94 % of control and 102 % of control and 103 % of control | [12] 117 % of control and 105 % of control and 108 % of control

CC(C)(CBr)COC(=O)Nc1cccc2ccccc12
inactive: [9] 91 % of control | [10] 91 % of control | [11] 95 % of control

CC1=CC(=O)C2C(C)(C)CCCC2(C)C1(O)CCc1ccoc1 (centres undefined)
inactive: [1] 110 % of control | [2] 103 % of control | [3] 107 % of control

c1ccc2nc3c(cc2c1)CCC3
inactive: endpoint: mean survival time, dose: 100.0 mg/kg/injection, schedule: Q04DX003 (ip), vehicle: saline + alcohol 95 % of control | endpoint: mean survival time, dose: 200.0 mg/kg/injection, schedule: Q04DX003 (ip), vehicle: saline + alcohol 95 % of control

O=c1[nH]c(=O)c2ncn(C3OC(CO)C(O)C3O)c2[nH]1.O=c1[nH]c(=O)c2ncn(C3OC(CO)C(O)C3O)c2[nH]1.[NH2-].[NH2-].[Pt+2] (centres undefined)
inactive: endpoint: mean survival time, dose: 6.25 mg/kg/injection, schedule: Q#A X018 (ip), vehicle: water 116 % of control | endpoint: mean survival time, dose: 12.5 mg/kg/injection, schedule: Q04DX003 (ip), vehicle: water 106 % of control | endpoint: mean survival time, dose: 12.5 mg/kg/injection, schedule: Q#A X018 (ip), vehicle: water 116 % of control | endpoint: mean survival time, dose: 25.0 mg/kg/injection, schedule: Q#A X018 (ip), vehicle: water 124 % of control | endpoint: mean survival time, dose: 50.0 mg/kg/injection, schedule: Q04DX003 (ip), vehicle: water 106 % of control | endpoint: mean survival time, dose: 100.0 mg/kg/injection, schedule: Q04DX003 (ip), vehicle: water 111 % of control | endpoint: mean survival time, dose: 200.0 mg/kg/injection, schedule: Q04DX003 (ip), vehicle: water 106 % of control | endpoint: mean survival time, dose: 400.0 mg/kg/injection, schedule: Q04DX003 (ip), vehicle: water 118 % of control

CCCCCCOS(=O)OCC(Cl)COC (centres undefined)
inactive: [12] 97 % of control | endpoint: mean survival time, dose: 200.0 mg/kg/injection, schedule: Q01DX009 (ip), vehicle: saline with Tween-80 94 % of control

O=C1NC(=S)S/C1=C\c1ccc(Cl)c(Cl)c1
inactive: [4] 106 % of control | [5] 94 % of control | [6] 97 % of control

CSc1nc(NC2OCC(O)C(O)C2O)c(I)c(=O)n1C (centres undefined)
inactive: endpoint: median survival time, dose: 12.5 mg/kg/injection, schedule: Q01DX005 (ip), vehicle: saline with Tween-80 103 % of control | endpoint: median survival time, dose: 25.0 mg/kg/injection, schedule: Q01DX005 (ip), vehicle: saline with Tween-80 101 % of control | endpoint: median survival time, dose: 50.0 mg/kg/injection, schedule: Q01DX005 (ip), vehicle: saline with Tween-80 101 % of control | endpoint: median survival time, dose: 100.0 mg/kg/injection, schedule: Q01DX005 (ip), vehicle: saline with Tween-80 100 % of control | endpoint: median survival time, dose: 200.0 mg/kg/injection, schedule: Q01DX005 (ip), vehicle: saline with Tween-80 100 % of control

NC(=O)C1(N2CCCCC2)CCN(CCCC(=O)c2ccc(F)cc2)CC1
inactive: [7] 101 % of control | [8] 101 % of control

Cc1cc(S(=O)(=O)F)cc(Cl)c1S
inactive: [1] 102 % of control

NC1CONC1=O (centres undefined)
inactive: endpoint: mean survival time, dose: 100.0 mg/kg/injection, schedule: Q04DX003 (ip), vehicle: saline 94 % of control | endpoint: mean survival time, dose: 200.0 mg/kg/injection, schedule: Q04DX003 (ip), vehicle: saline 97 % of control | endpoint: mean survival time, dose: 400.0 mg/kg/injection, schedule: Q04DX003 (ip), vehicle: saline 96 % of control

CSc1ncnc2c1c1c(N)ncnc1n2C1OC(CO)C(O)C1O (centres undefined)
inactive: endpoint: mean survival time, dose: 12.5 mg/kg/injection, schedule: Q01DX005 (ip), vehicle: other 107 % of control | endpoint: mean survival time, dose: 25.0 mg/kg/injection, schedule: Q01DX005 (ip), vehicle: other 101 % of control | endpoint: mean survival time, dose: 50.0 mg/kg/injection, schedule: Q01DX005 (ip), vehicle: other 95 % of control | endpoint: mean survival time, dose: 100.0 mg/kg/injection, schedule: Q01DX005 (ip), vehicle: other 103 % of control | endpoint: mean survival time, dose: 200.0 mg/kg/injection, schedule: Q01DX005 (ip), vehicle: other 109 % of control

Cc1nc(C)c(CCO)c(=O)[nH]1
inactive: [4] 97 % of control | [5] 101 % of control | [6] 103 % of control
